Consider 24 compounds from patent US20220089578A1, “COMPOUNDS AS GLP-1R AGONISTS” (Terns Pharmaceuticals, Inc., priority 2020, published 2022).

SMILES strings stand for the structures.

Sequence of human GLP-1R (P43220 24-463): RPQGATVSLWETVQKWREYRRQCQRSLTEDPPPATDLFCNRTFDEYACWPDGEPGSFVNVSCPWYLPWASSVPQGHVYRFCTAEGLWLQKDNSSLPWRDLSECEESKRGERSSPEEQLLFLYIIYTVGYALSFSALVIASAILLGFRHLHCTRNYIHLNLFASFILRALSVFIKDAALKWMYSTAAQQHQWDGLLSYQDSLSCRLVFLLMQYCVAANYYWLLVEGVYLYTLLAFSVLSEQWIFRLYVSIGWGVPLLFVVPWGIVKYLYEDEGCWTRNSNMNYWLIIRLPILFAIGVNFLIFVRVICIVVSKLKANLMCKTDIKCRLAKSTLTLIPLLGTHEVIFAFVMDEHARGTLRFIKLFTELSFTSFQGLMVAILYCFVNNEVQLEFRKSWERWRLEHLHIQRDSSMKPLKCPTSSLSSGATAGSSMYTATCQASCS

For the first assay, the target named is human GLP-1R (Homo sapiens, UniProt P43220). Description: GLP-1R Cell Assay 1: cAMP Hunter CHO-K1 GLP1R Gs cell line, HitHunter cAMP assay. It counts as cell-based. As to conditions: Table 2; cAMP Hunter CHO-K1 GLP1R Gs cells; percent activity normalized to Exendin-4. The protocol:
GLP-1R mediated agonist activity was determined using the cAMP Hunter CHO-K1 GLP1R Gs cell line (DiscoverX, cat# 95-0062C2), a stable CHO-K1 derived cell lines overexpressing naturally Gs coupled wild-type human GLP-1R (accession number: NM_002062.3). GLP-1R agonism in this cell line was detected by measuring cellular cAMP levels using the HitHunter cAMP assay kit (cat# 90-0075SM2), a homogenous, gain-of-signal competitive immune assay based on Enzyme Fragment Complementation (EFC) technology. In this system cellular cAMP competes with exogenous labeled cAMP (ED-cAMP) for binding to an anti-cAMP antibody. […] The luminescent signal is directly proportional to the amount of cellular cAMP.
For compound testing, cells were seeded in a total volume of 20 μL in white walled, 384-well microplates and incubated at 37° C. prior to compound testing. Prior to compound addition, cell culture media was removed by aspiration and replaced with 15 pt reagent buffer (2:1 HBSS/10 mM HEPES: cAMP XS+Ab reagent). Compounds were dissolved in DSMO and serially diluted (3-fold) prior to final dilution to 4X in assay buffer. Samples (5 μL) were added to cells and incubated at 37° C. for […] prior to 1 hour incubation with 20 pt cAMP XS+ED/CL lysis reagent and 3 hour incubation with 20 μL cAMP XS+EA reagent at room temperature. Microplates were read on a PerkinElmer Envision instrument. Compound activity was analyzed using CBIS data analysis suite (ChemInnovation). Percent activity was calculated based on duplicate assay runs and normalized to the positive control Exendin-4, a GLP-1R peptide agonist, using the following formula: […]
The effective compound concentration resulting in 50% response (EC50) was determined by non-linear regression analysis of dose-response curves.
In general terms: Cyclic AMP is a second messenger, typically raised through Gs and lowered through Gi signalling.
By EC50 is commonly meant the concentration at which the effect is half-maximal. In the case of `O=C(O)c1ccc2nc(CN3CC[C@]4(c5cccc(OCc6ccc(Cl)cc6F)n5)C[C@@H]4C3)n(C[C@@H]3CCO3)c2c1` [Compound 98, 2-(((1S,6R)-6-(6-((4-chloro-2-fluorobenzyl)oxy)pyridin-2-yl)-3-azabicyclo[4.1.0]heptan-3-yl)methyl)-1-(((S)-oxetan-2-yl)methyl)-1H-benzo[d]imidazole-6-carboxylic acid], the half-maximal effective concentration (EC50) was determined as 0.556 nM. Still for that read-out and setting: in the case of `N#Cc1cccc2c1CCCN2c1cccc(N2CCN(Cc3nc4ccc(C(=O)O)cc4n3C[C@@H]3CCO3)CC2)n1` [Compound 5, (S)-2-((4-(6-(5-cyano-3,4-dihydroquinolin-1(2H)-yl)pyridin-2-yl)piperazin-1-yl)methyl)-1-(oxetan-2-ylmethyl)-1H-benzo[d]imidazole-6-carboxylic acid] it was 315 nM.

For `O=C(O)c1ccc2nc(CN3CCN(c4cccc(N5CCc6cc(Cl)cc(F)c6C5)n4)CC3)n(C[C@@H]3CCO3)c2c1` [Compound 127, (S)-2-((4-(6-(6-chloro-8-fluoro-3,4-dihydroisoquinolin-2(1H)-yl)pyridin-2-yl)piperazin-1-yl)methyl)-1-(oxetan-2-ylmethyl)-1H-benzo[d]imidazole-6-carboxylic acid], it took 1.09 nM to reach a half-maximal effect (EC50).

`CS(=O)(=O)N1CC(COc2cccc(N3CCN(Cc4nc5ccc(C(=O)O)cc5n4C[C@@H]4CCO4)CC3)n2)C1` [Compound 56, (S)-2-((4-(6-((1-(methylsulfonyl)azetidin-3-yl)methoxy)pyridin-2-yl)piperazin-1-yl)methyl)-1-(oxetan-2-ylmethyl)-1H-benzo[d]imidazole-6-carboxylic acid] came in with an EC50 of more than 500 nM.

`C[C@H](Oc1cccc(N2CCN(Cc3nc4ccc(C(=O)O)cc4n3C[C@@H]3CCO3)CC2)n1)c1nc2ccccc2s1` [Compound 115, 2-((4-(6-((S)-1-(benzo[d]thiazol-2-yl)ethoxy)pyridin-2-yl)piperazin-1-yl)methyl)-1-(((S)-oxetan-2-yl)methyl)-1H-benzo[d]imidazole-6-carboxylic acid] returned an EC50 of 8 nM.

The compound `N#Cc1cccc2c1CN(c1cccc(N3CCN(Cc4nc5ccc(C(=O)O)cc5n4C[C@@H]4CCO4)CC3)n1)CCC2` [Compound 80, (S)-2-((4-(6-(9-cyano-1,3,4,5-tetrahydro-2H-benzo[c]azepin-2-yl)pyridin-2-yl)piperazin-1-yl)methyl)-1-(oxetan-2-ylmethyl)-1H-benzo[d]imidazole-6-carboxylic acid] returned an EC50 of 37.9 nM.

With `O=C(O)c1ccc2nc(CN3CCC(c4cccc(OCc5nccs5)n4)CC3)n(C[C@@H]3CCO3)c2c1` [Compound 139, (S)-1-(oxetan-2-ylmethyl)-2-((4-(6-(thiazol-2-ylmethoxy)pyridin-2-yl)piperidin-1-yl)methyl)-1H-benzo[d]imidazole-6-carboxylic acid], the EC50 is 2.65 nM.

`O=C(O)c1ccc2nc(CN3CCN(c4cccc(OCc5ccc(Cl)cn5)n4)CC3)n(C[C@@H]3CCO3)c2c1` [Compound 58, (S)-2-((4-(6-((5-chloropyridin-2-yl)methoxy)pyridin-2-yl)piperazin-1-yl)methyl)-1-(oxetan-2-ylmethyl)-1H-benzo[d]imidazole-6-carboxylic acid] gave an EC50 of 0.221 nM. As for `Cc1cc(OCc2ccccc2)nn1C1CCN(Cc2nc3ccc(C(=O)O)cc3n2C[C@@H]2CCO2)CC1` [Compound 21, (S)-2-((4-(3-(benzyloxy)-5-methyl-1H-pyrazol-1-yl)piperidin-1-yl)methyl)-1-(oxetan-2-ylmethyl)-1H-benzo[d]imidazole-6-carboxylic acid], a half-maximal response (EC50) required 2770 nM.

`N#Cc1ccc(COc2cccc(C3CCN([C@@H]4COCCn5c4nc4ccc(C(=O)O)cc45)CC3)n2)c(F)c1` (single isomer, unassigned) [Compound 7-P2] gave a concentration for a half-maximal effect (EC50) of more than 500 nM. Still for that read-out and setting: in the case of `Cn1c(COc2cccc(N3CCN(Cc4nc5ccc(C(=O)O)cc5n4C[C@@H]4CCO4)CC3)n2)nc2ccccc21` [Compound 71, (S)-2-((4-(6-((1-methyl-1H-benzo[d]imidazol-2-yl)methoxy)pyridin-2-yl)piperazin-1-yl)methyl)-1-(oxetan-2-ylmethyl)-1H-benzo[d]imidazole-6-carboxylic acid] it was 15.7 nM. `N#Cc1ccc(COc2cccc(N3CCN(Cc4nc5ccc(C(=O)O)cc5n4CC4CCS4(=O)=O)CC3)n2)c(F)c1` (single isomer, unassigned) [Compound 140-P2] showed an EC50 of 0.17 nM. On the same count and under the same terms, the figure for `O=C(O)c1ccc2nc(CN3CCN(c4cccc(OCc5nc6cnccc6s5)n4)CC3)n(C[C@@H]3CCO3)c2c1` [Compound 130, (S)-1-(oxetan-2-ylmethyl)-2-((4-(6-(thiazolo[4,5-c]pyridin-2-ylmethoxy)pyridin-2-yl)piperazin-1-yl)methyl)-1H-benzo[d]imidazole-6-carboxylic acid] is 0.966 nM; for `N#Cc1cccc2c1CCCN(c1cccc(N3CCN(Cc4nc5ccc(C(=O)O)cc5n4C[C@@H]4CCO4)CC3)n1)C2` [Compound 78, (S)-2-((4-(6-(6-cyano-1,3,4,5-tetrahydro-2H-benzo[c]azepin-2-yl)pyridin-2-yl)piperazin-1-yl)methyl)-1-(oxetan-2-ylmethyl)-1H-benzo[d]imidazole-6-carboxylic acid] it is 56.2 nM. Turning to `O=C(O)c1ccc2nc(CN3CCN(c4cccc(OCc5nc6cc(Cl)ccc6s5)n4)CC3)n(C[C@@H]3CCO3)c2c1` [Compound 112, (S)-2-((4-(6-((5-chlorobenzo[d]thiazol-2-yl)methoxy)pyridin-2-yl)piperazin-1-yl)methyl)-1-(oxetan-2-ylmethyl)-1H-benzo[d]imidazole-6-carboxylic acid], the 50% effective concentration (EC50) worked out at 1.24 nM. The same measure, in the same setting: in the case of `O=C(O)c1ccc2nc3n(c2c1)CCOC[C@@H]3N1CCC(c2cccc(OCc3ccccc3)n2)CC1` [Compound 94, (R)-5-(4-(6-(benzyloxy)pyridin-2-yl)piperidin-1-yl)-1,2,4,5-tetrahydrobenzo[4,5]imidazo[1,2-d][1,4]oxazepine-9-carboxylic acid] it was 152 nM. `N#Cc1ccc2c(c1)CCN(c1ccn(C3CCN(Cc4nc5ccc(C(=O)O)cc5n4C[C@@H]4CCO4)CC3)n1)CC2` [Compound 106, (S)-2-((4-(3-(7-cyano-1,2,4,5-tetrahydro-3H-benzo[d]azepin-3-yl)-1H-pyrazol-1-yl)piperidin-1-yl)methyl)-1-(oxetan-2-ylmethyl)-1H-benzo[d]imidazole-6-carboxylic acid] showed a concentration for a half-maximal effect (EC50) of more than 500 nM. `C[C@@H]1c2ccc(C#N)cc2CCN1c1cccc(N2CCN(Cc3nc4ccc(C(=O)O)cc4n3C[C@@H]3CCO3)CC2)n1` [Compound 83] displayed an EC50 of 229 nM. Still for that read-out and setting: the figure for `CCn1cncc1Cn1c(CN2CC[C@@]3(c4cccc(OCc5ccc(C#N)cc5F)n4)C[C@H]3C2)nc2ccc(C(=O)O)cc21` (single isomer, unassigned) [Compound 121-P1] is 0.0329 nM; for `N#CC1(COc2cccc(N3CCN(Cc4nc5ccc(C(=O)O)cc5n4C[C@@H]4CCO4)CC3)n2)COC1` [Compound 61, (S)-2-((4-(6-((3-cyanooxetan-3-yl)methoxy)pyridin-2-yl)piperazin-1-yl)methyl)-1-(oxetan-2-ylmethyl)-1H-benzo[d]imidazole-6-carboxylic acid] it is more than 500 nM.

Consider `O=C(O)c1ccc2nc(CN3CC[C@]4(c5cccc(OCc6ccccc6)n5)C[C@@H]4C3)n(C[C@@H]3CCO3)c2c1` [Compound 97, 2-(((1S,6R)-6-(6-(benzyloxy)pyridin-2-yl)-3-azabicyclo[4.1.0]heptan-3-yl)methyl)-1-(((S)-oxetan-2-yl)methyl)-1H-benzo[d]imidazole-6-carboxylic acid], for which the EC50 amounted to 18.6 nM. Still for that read-out and setting: the figure for `O=C(O)c1ccc2nc(CN3CCN(c4cccc(OC5CN(c6ccccc6)C5)n4)CC3)n(C[C@@H]3CCO3)c2c1` [Compound 39, (S)-1-(oxetan-2-ylmethyl)-2-((4-(6-((1-phenylazetidin-3-yl)oxy)pyridin-2-yl)piperazin-1-yl)methyl)-1H-benzo[d]imidazole-6-carboxylic acid] is 420 nM.

Still in this assay, the particulars now being: Table 3; cAMP Hunter CHO-K1 GLP1R Gs cells; percent activity normalized to Exendin-4.
For the compound `N#Cc1ccc(CCn2ccc(C3CCN(Cc4nc5ccc(C(=O)O)cc5n4C[C@@H]4CCO4)CC3)n2)c(F)c1` [Compound 145, (S)-2-((4-(1-(4-cyano-2-fluorophenethyl)-1H-pyrazol-3-yl)piperidin-1-yl)methyl)-1-(oxetan-2-ylmethyl)-1H-benzo[d]imidazole-6-carboxylic acid], the EC50 was more than 500 nM. On the same count and under the same terms, the figure for `O=C(O)c1ccc2nc(CN3CCN(c4ccc5cc(-c6ccccc6)oc5n4)CC3)n(C[C@@H]3CCO3)c2c1` [Compound 160, (S)-1-(oxetan-2-ylmethyl)-2-((4-(2-phenylfuro[2,3-b]pyridin-6-yl)piperazin-1-yl)methyl)-1H-benzo[d]imidazole-6-carboxylic acid] is more than 500 nM.
